# Values quoted from earlier work as cited in publication PMC3819144 (Biochemical pharmacology, 2013).
# Assays:
# [1] = system: CXCR7
# [2] = system: CXCR7; settings: requires relatively high concentrations
smiles,measurement,setting,value
c1cc(CN2CCCNCCNCCCNCC2)ccc1CN1CCCNCCNCCCNCC1 [AMD3100],CXCR7 signaling through β-arrestin 2 / recruitment of β-arrestin 2,[1],modestly activate CXCR7 signaling through β-arrestin 2
same,effect on binding of CXCL12 to CXCR7,[2],enhance binding of CXCL12 to CXCR7
